Measured values: the supplement of paper PMC12137928
Counter-ions that a name gives are not always drawn.

Tests used:
[1] = test system: HCT116; experiment: efficacy (maximum % inhibition of viability vs DMSO); higher = more cytotoxic; conditions: 72 h
Procedure, shortened: (§1)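 Four-parameter Hill fits gave IC50 and maximal efficacy. The data were CellTiter-Glo luminescence readings in HCT116 cells, normalized so that vehicle was 0% and positive control was -100%, with pattern correction afterwards.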

[2] = test system: HCT116; conditions: 72 h
Procedure, shortened: as §1

Row | Compound | efficacy ([1]; ICRF193 200 nM) [%] | IC50 cell viability ([2]; ICRF193 0 nM) [µM] | IC50 cell viability ([2]; ICRF193 200 nM) [µM] | efficacy ([1]; ICRF193 0 nM) [%]
1 | CCCN(CCC)C(=O)C(CCC(=O)OCCCN1CCN(CCOC(=O)Cc2c(C)n(C(=O)c3ccc(Cl)cc3)c3ccc(OC)cc23)CC1)NC(=O)c1ccccc1 (stereo not given) [Proglumetacin] | 48.5 | > 45.8 | 20.6 | –
2 | CC(C)C[C@H](NC(=O)[C@H](Cc1ccccc1)NC(=O)c1cnccn1)B(O)O [Bortezomib] | 97.3 | 0.00517 | 0.00517 | 93.7
3 | OC(c1cc(C(F)(F)F)nc2c(C(F)(F)F)cccc12)C1CCCCN1 (stereo not given) [Mefloquine hydrochloride] | 98 | 23.1 | 23.1 | 116
4 | CC(C(O)c1ccccc1)N(C)CCOC(c1ccccc1)c1ccccc1 (stereo not given) [Difeterol] | 85.3 | 29.1 | 23.1 | 83
5 | CN(C)CC/C=C1\c2ccccc2CSc2ccccc21 [Dosulepin hydrochloride] | 69.1 | 20.6 | 29.1 | 67.8
6 | [O-][n+]1ccccc1[S-].[O-][n+]1ccccc1[S-].[Zn+2] [Zinc pyrithione] | 102 | 4.61 | 2.06 | 107
7 | CN(C)c1ccc2nc3ccc(=[N+](C)C)cc-3sc2c1 [Methylene blue] | 91.6 | 3.66 | 2.31 | 109
8 | O=C1C(O)=C([C@H]2CC[C@H](c3ccc(Cl)cc3)CC2)C(=O)c2ccccc21 [Atovaquone] | 54.1 | > 45.8 | 18.3 | –
9 | Cc1c(-c2ccc(O)cc2)n(Cc2ccc(OCCN3CCCCCC3)cc2)c2ccc(O)cc12 [Bazedoxifene] | 47.4 | > 45.8 | 23.1 | –
10 | O=C(Nc1ccc(Cl)cc1)Nc1ccc(Cl)c(C(F)(F)F)c1 [Cloflucarban] | 98.1 | 5.8 | 5.8 | 98.6
11 | O=c1[nH]c(=O)n([C@H]2C[C@H](O)[C@@H](CO)O2)cc1F [Floxuridine] | 43 | 2.91 | 1.16 | 49.1
12 | Oc1cc(Cl)ccc1Oc1ccc(Cl)cc1Cl [Triclosan] | 95.2 | 16.4 | 18.3 | 92.5
13 | CNCC[C@@H](Oc1ccccc1C)c1ccccc1 [Atomoxetine hydrochloride] | 81.3 | > 45.8 | 29.1 | –
14 | C=C1CC[C@H](O)C/C1=C/C=C1\CCC[C@]2(C)[C@@H]([C@H](C)CCCC(C)(C)O)CC[C@@H]12 [Calcifediol (monohydrate)] | 42.8 | > 45.8 | 23.1 | –
15 | COc1cccc2c1C(=O)c1c(O)c3c(c(O)c1C2=O)C[C@@](O)(C(C)=O)C[C@@H]3O[C@H]1C[C@H](N)[C@H](O)[C@H](C)O1 [Daunorubicin] | 83.8 | 0.461 | 0.0517 | 102
16 | OCc1cc(C(O)CNCCCCCCOCCCCc2ccccc2)ccc1O (stereo not given) [Salmeterol xinafoate] | 110 | 23.1 | 23.1 | 108
17 | CNC(=O)c1cc(Oc2ccc(NC(=O)Nc3ccc(Cl)c(C(F)(F)F)c3)cc2)ccn1 [Sorafenib] | 52.1 | 20.6 | 29.1 | 113
18 | Cc1cc(-c2ccc(/N=N/c3ccc4c(S(=O)(=O)O)cc(S(=O)(=O)O)c(N)c4c3O)c(C)c2)ccc1/N=N/c1ccc2c(S(=O)(=O)O)cc(S(=O)(=O)O)c(N)c2c1O [EVANS BLUE] | 87.8 | 18.3 | 18.3 | 95.6
19 | O=C(O)C1=C(CSc2nnnn2CS(=O)(=O)O)CS[C@@H]2[C@H](NC(=O)[C@H](O)c3ccccc3)C(=O)N12 [CEFONICID SODIUM] | 85.2 | > 45.8 | 6.51 | –
20 | CCCCN(CCCC)CCC(O)c1cc2c(Cl)cc(Cl)cc2c2cc(C(F)(F)F)ccc12 (stereo not given) [Halofantrine] | 87.4 | 23.1 | 20.6 | 66.9
21 | COc1c(OCCCN2CCOCC2)ccc2c1N=C(NC(=O)c1cnc(N)nc1)N1CCN=C21 [Copanlisib] | 65.9 | 0.944 | 0.473 | 59.1
22 | C[C@@]12C(=O)OC(=O)[C@]1(C)[C@H]1CC[C@@H]2O1 [Cantharidin] | 77.2 | 5.8 | 4.11 | 74.9
23 | CNC(=O)c1cc(Oc2ccc(NC(=O)Nc3ccc(Cl)c(C(F)(F)F)c3)c(F)c2)ccn1 [Regorafenib] | 80.7 | 8.2 | 5.8 | 67.3
24 | O=C(Nc1ccc(Cl)cc1)Nc1ccc(Cl)c(Cl)c1 [Triclocarban] | 104 | 18.3 | 13 | 102
25 | CN1CCCN(C(c2ccccc2)c2ccc(Cl)cc2)CC1 (stereo not given) [Homochlorcyclizine] | 84.3 | 20.6 | 29.1 | 71.7
26 | COC1=CC(=O)C[C@@H](C)[C@]12Oc1c(Cl)c(OC)cc(OC)c1C2=O [Griseofulvin] | 65 | 29.1 | 20.6 | 66.1

Row | Compound | efficacy ([1]; ICRF193 200 nM) [%] | IC50 cell viability ([2]; ICRF193 0 nM) [µM] | IC50 cell viability ([2]; ICRF193 200 nM) [µM] | efficacy ([1]; ICRF193 0 nM) [%]
27 | Clc1ccc(COC(Cn2ccnc2)c2ccc(Cl)cc2Cl)cc1 (stereo not given) [Econazole nitrate] | 96 | 20.6 | 20.6 | 90.3
28 | CN(C)C(=O)C(CCN1CCC(O)(c2ccc(Cl)cc2)CC1)(c1ccccc1)c1ccccc1 [Loperamide hydrochloride] | 54.9 | 14.6 | 18.3 | 59.4
29 | Cc1cc(CC(C)CC(C)(C)C)n(O)c(=O)c1 (stereo not given) [Piroctone Olamine] | 87.4 | 18.3 | 29.1 | 81
30 | C[C@H]1O[C@@H](O[C@H]2CC[C@@]3(C)[C@H](CC[C@@H]4[C@@H]3C[C@@H](O)[C@]3(C)[C@@H](C5=CC(=O)OC5)CC[C@]43O)C2)C[C@H](O)[C@@H]1O[C@H]1C[C@H](O)[C@H](O[C@H]2C[C@H](O)[C@H](O[C@@H]3O[C@H](CO)[C@@H](O)[C@H](O)[C@H]3O)[C@@H](C)O2)[C@@H](C)O1 [Deslanoside] | 78.1 | 0.231 | 0.231 | 85.6
31 | CCCOc1ccc2[nH]c(NC(=O)OC)nc2c1 [Oxibendazole] | 40.1 | 1.3 | 0.183 | 43
32 | CO[C@H]1C[C@@H]2CC[C@@H](C)[C@@](O)(O2)C(=O)C(=O)N2CCCC[C@H]2C(=O)O[C@H]([C@H](C)C[C@@H]2CC[C@@H](O)[C@H](OC)C2)CC(=O)[C@H](C)/C=C(\C)[C@@H](O)[C@@H](OC)C(=O)[C@H](C)C[C@H](C)/C=C/C=C/C=C/1C [Sirolimus] | 88.6 | 20.6 | 29.1 | 91.7
33 | Cc1cccc(CN2CCN(C(c3ccccc3)c3ccc(Cl)cc3)CC2)c1 (stereo not given) [Meclizine hydrochloride] | 49.1 | > 45.8 | 29.1 | –
34 | Oc1cccc(-c2c3nc(c(-c4cccc(O)c4)c4ccc([nH]4)c(-c4cccc(O)c4)c4nc(c(-c5cccc(O)c5)c5ccc2[nH]5)CC4)C=C3)c1 [Temoporfin] | 46 | > 45.8 | 25.9 | –
35 | Cc1cc(-n2c(=O)[nH]c(=O)n(C)c2=O)ccc1Oc1ccc(S(=O)(=O)C(F)(F)F)cc1 [Toltrazuril (sulfone)] | – | 7.3 | > 45.8 | 44.9
36 | C=CCOC(Cn1ccnc1)c1ccc(Cl)cc1Cl (stereo not given) [Imazalil sulfate] | 44.8 | > 45.8 | 29.1 | –
37 | CCCOC(C(=O)OC1CCN(C)CC1)(c1ccccc1)c1ccccc1 [Propiverine hydrochloride] | 45 | > 45.8 | 16.4 | –
38 | Cc1[nH]c(/C=C2\C(=O)Nc3ccc(F)cc32)c(C)c1C(=O)NCCN1CCCC1 [Toceranib] | 94.9 | 8.96 | 8.96 | 102
39 | CC(C)c1c(C(=O)Nc2ccccc2)c(-c2ccccc2)c(-c2ccc(F)cc2)n1CC[C@@H](O)C[C@@H](O)CC(=O)O [Atorvastatin calcium] | 70.6 | 18.3 | 18.3 | 60.2
40 | CCOC(=O)O[C@]1(C(=O)COC(=O)CC)CC[C@H]2[C@@H]3CCC4=CC(=O)C=C[C@]4(C)[C@H]3[C@@H](O)C[C@@]21C [PREDNICARBATE] | 93.8 | 16.4 | 29.1 | 108
41 | NC(=O)c1cccc2cn(-c3ccc([C@@H]4CCCNC4)cc3)nc12 [MK-4827] | 114 | 29.1 | 18.3 | 72.9
42 | COc1cc(N2CCC(N3CCN(C)CC3)CC2)ccc1Nc1ncc(Cl)c(Nc2ccccc2P(C)(C)=O)n1 [Brigatinib] | 92.5 | 20.6 | 13 | 82.6
43 | CN(C)C(=S)SC(=S)N(C)C [Tetramethylthiuram monosulfide] | 40.7 | > 45.8 | 3.66 | –
44 | CN[C@H]1CC[C@@H](c2ccc(Cl)c(Cl)c2)c2ccccc21 [Sertraline hydrochloride] | 97.5 | 18.3 | 18.3 | 95.4
45 | O=c1[nH]c2ccccc2n1CCCN1CCN(C(c2ccccc2)c2ccccc2)CC1 [Oxatomide] | 84.5 | 18.3 | 29.1 | 73.2
46 | CN(C)CCC=C1c2ccccc2CCc2ccccc21 [Amitriptyline hydrochloride] | 51.6 | > 45.8 | 18.3 | –
47 | Clc1ccc(C(Cn2ccnc2)OCc2c(Cl)cccc2Cl)c(Cl)c1 (stereo not given) [Isoconazole nitrate] | 82.6 | 25.9 | 18.3 | 87.5
48 | CC(=O)O[C@@]12CO[C@@H]1C[C@H](O)[C@@]1(C)C(=O)[C@H](O)C3=C(C)[C@@H](OC(=O)[C@H](O)[C@@H](NC(=O)OC(C)(C)C)c4ccccc4)C[C@@](O)([C@@H](OC(=O)c4ccccc4)[C@H]21)C3(C)C [Docetaxel] | 56.5 | 0.0103 | 0.0146 | 60.8
49 | C=C1CC[C@H](O)C/C1=C/C=C1\CCC[C@]2(C)[C@@H]([C@H](C)/C=C/[C@H](C)C(C)C)CC[C@@H]12 [ERGOCALCIFEROL] | 56.2 | > 45.8 | 29.1 | –
50 | CC(=O)Oc1cc(C)c(OC(C)=O)c2ccccc12 [Acetomenaphthone] | 108 | 44.7 | 50.1 | 107
51 | COC(=O)C[C@](O)(CCCC(C)(C)O)C(=O)O[C@@H]1C(OC)=C[C@]23CCCN2CCc2cc4c(cc2[C@H]13)OCO4 [Omacetaxine mepesuccinate] | 66.3 | 0.0651 | 0.0461 | 65.6
